The IC50 is the concentration that gives 50% inhibition.

In this assay the target is BRD4 (Homo sapiens, UniProt O60885). The assay can be described thus: Time Resolved Fluorescence Resonance Energy Transfer (TR-FRET) binding assay, BRD4. Particulars: one of the FRET assays described; read-out: FRET BRD4 IC50. In general terms: TR-FRET usually uses a lanthanide donor and a delayed reading to cut background.

As to `Cc1nnn(C)c1-c1cnc2c3ccc(C(C)(C)O)cc3n(C(c3cccc(Cl)c3)C3CCOCC3)c2c1` (single isomer, unassigned) [Example 400], the IC50 is less than 5 nM.

Consider `Cc1nnn(C)c1-c1cnc2c3ccc(CC(C)(C)O)cc3n([C@H](c3ccc(F)cc3)C3CCOCC3)c2c1` [Example 256, 1-[3-(Dimethyl-1H-1,2,3-triazol-5-yl)-5-[(S)-(4-fluorophenyl)(oxan-4-yl)methyl]-5H-pyrido[3,2-b]indol-7-yl]-2-methylpropan-2-ol], for which the IC50 was less than 5 nM.

Turning to `Cc1nnn(C)c1-c1cnc2c3c(F)ccc(S(C)(=O)=O)c3n([C@H](c3ccccc3)C3CCOCC3)c2c1` [Example 181, 5-{9-Fluoro-6-methanesulfonyl-5-[(S)-oxan-4-yl(phenyl)methyl]-5H-pyrido[3,2-b]indol-3-yl}-1,4-dimethyl-1H-1,2,3-triazole], the IC50 was less than 5 nM.

On to `[2H]C([2H])([2H])c1nnn(C)c1-c1cnc2c3c(F)cc(S(C)(=O)=O)cc3n([C@H](c3ccccc3F)C3CCOCC3)c2c1` [Example 196, 5-{9-Fluoro-5-[(S)-(2-fluorophenyl)(oxan-4-yl)methyl]-7-methanesulfonyl-5H-pyrido[3,2-b]indol-3-yl}-4-(^2H3)methyl-1-methyl-1H-1,2,3-triazole], for which the IC50 was less than 25 nM.

On to `Cc1nnn(C)c1-c1cnc2c3ccc(NC(=O)OCCC(F)(F)F)cc3n([C@H](c3ccccc3)C3CCOCC3)c2c1` [Example 364, 3,3,3-Trifluoropropyl N-[3-(dimethyl-1H-1,2,3-triazol-5-yl)-5-[(S)-oxan-4-yl(phenyl)methyl]-5H-pyrido[3,2-b]indol-7-yl]carbamate], for which the IC50 was less than 5 nM.

`Cc1noc(C)c1-c1cnc2c3c(F)cc(C(C)(C)O)cc3n([C@H](c3ccccc3)C3CCOCC3)c2c1` [Example 370, 2-[3-(Dimethyl-1,2-oxazol-4-yl)-9-fluoro-5-[(S)-oxan-4-yl(phenyl)methyl]-5H-pyrido[3,2-b]indol-7-yl]propan-2-ol]: the IC50 is less than 5 nM.

For `Cc1nnn(C)c1-c1cnc2c3c(F)cc(C(C)(C)O)cc3n(C(c3cccc(F)c3)C3CCOCC3)c2c1` (single isomer, unassigned) [Example 112, 2-[3-(Dimethyl-1H-1,2,3-triazol-5-yl)-9-fluoro-5-[(3-fluorophenyl)(oxan-4-yl)methyl]-5H-pyrido[3,2-b]indol-7-yl]propan-2-ol], the IC50 is less than 5 nM.

Take `[2H]C([2H])([2H])c1nnn(C)c1-c1cnc2c3c(S(C)(=O)=O)cccc3n([C@H](c3ccccc3)C3CCOCC3)c2c1` [Example 268, 5-{9-Methanesulfonyl-5-[(S)-oxan-4-yl(phenyl)methyl]-5H-pyrido[3,2-b]indol-3-yl}-4-(^2H3)methyl-1-methyl-1H-1,2,3-triazole]: the IC50 was less than 5 nM.

For the compound `COc1ccc(S(C)(=O)=O)c2c1c1ncc(-c3c(C)nnn3C)cc1n2[C@H](c1ccc(F)cc1)C1CCOCC1` [Example 190, 5-{5-[(S)-(4-Fluorophenyl)(oxan-4-yl)methyl]-6-methanesulfonyl-9-methoxy-5H-pyrido[3,2-b]indol-3-yl}-1,4-dimethyl-1H-1,2,3-triazole], the IC50 was less than 5 nM.

With `Cc1nnn(C)c1-c1cnc2c3cc(F)c(C(C)(O)C4CC4)cc3n([C@H](c3ccccc3)C3CCOCC3)c2c1` (single isomer, unassigned) [Example 443], the IC50 is less than 5 nM.

Take `Cc1nnn(C)c1-c1cnc2c3cc(F)c(C(C)(C)O)cc3n(C(c3ccc(F)cc3)C3CCOCC3)c2c1` (single isomer, unassigned) [Example 78, 2-[3-(Dimethyl-1H-1,2,3-triazol-5-yl)-8-fluoro-5-[(4-fluorophenyl)(oxan-4-yl)methyl]-5H-pyrido[3,2-b]indol-7-yl]propan-2-ol]: the IC50 is less than 5 nM.

Consider `[2H]C([2H])([2H])c1nnn(C)c1-c1cnc2c3ccc(C(C)(C)O)cc3n(C(c3ncccc3F)C3CCOCC3)c2c1` (single isomer, unassigned) [Example 316], for which the IC50 is less than 5 nM.

As to `[2H]C([2H])([2H])c1nnn(C)c1-c1cnc2c3ccc(C(C)(C)O)c(F)c3n(C(c3ncccc3F)C3CCC(F)(F)CC3)c2c1` (single isomer, unassigned) [Example 456], the IC50 was less than 5 nM.

Consider `[2H]C([2H])([2H])n1nnc(OC)c1-c1cnc2c3ccc(C(C)(C)O)cc3n([C@H](c3ccccc3)C3CCOCC3)c2c1` [Example 381, 2-{3-[4-Methoxy-1-(^2H3)methyl-1H-1,2,3-triazol-5-yl]-5-[(S)-oxan-4-yl(phenyl)methyl]-5H-pyrido[3,2-b]indol-7-yl}propan-2-ol], for which the IC50 is less than 5 nM.

Regarding `Cn1nccc1-c1cnc2c3ccc(S(C)(=O)=O)cc3n([C@H](c3ccccc3)C3CCOCC3)c2c1` [Example 418, 5-{7-Methanesulfonyl-5-[(S)-oxan-4-yl(phenyl)methyl]-5H-pyrido[3,2-b]indol-3-yl}-1-methyl-1H-pyrazole], the IC50 was less than 25 nM.

In the case of `Cc1nnn(C)c1-c1cnc2c3ccc(C(C)(C)O)cc3n(C(c3ccc(F)c(F)c3)C3CCOCC3)c2c1` (single isomer, unassigned) [Example 96, 2-{5-[(3,4-Difluorophenyl)(oxan-4-yl)methyl]-3-(dimethyl-1H-1,2,3-triazol-5-yl)-5H-pyrido[3,2-b]indol-7-yl}propan-2-ol], the IC50 was less than 25 nM.

In the case of `Cc1nnn(C)c1-c1cnc2c3c(NS(=O)(=O)C4CC4)ccc(S(C)(=O)=O)c3n([C@H](c3ccccc3)C3CCOCC3)c2c1` [Example 218], the concentration for half-maximal inhibition (IC50) was less than 5 nM.

For `Cc1nnn(C)c1-c1cnc2c3ccc(C(C)(C)O)cc3n([C@H](c3ccccc3F)C3CCOCC3)c2c1` [Example 64], the IC50 was less than 5 nM.

Take `[2H]C([2H])([2H])c1nnn(C)c1-c1cnc2c3ccc(C(C)(C)O)cc3n(C(c3ncccc3Cl)C3CCOCC3)c2c1` (single isomer, unassigned) [Example 322]: the IC50 is less than 5 nM.

With `Cc1noc(C)c1-c1cnc2c3ccc(C(C)(C)O)cc3n([C@H](c3ccc(F)cc3)C3CCOC(C)(C)C3)c2c1` (stereo partly shown) [Example 17], the IC50 was less than 25 nM.

On to `Cc1nnn(C)c1-c1cnc2c3cccc(S(C)(=O)=O)c3n([C@@H](CCC(F)(F)F)c3ccccc3)c2c1` [Example 377, 5-{6-Methanesulfonyl-5-[(1S)-4,4,4-trifluoro-1-phenylbutyl]-5H-pyrido[3,2-b]indol-3-yl}-1,4-dimethyl-1H-1,2,3-triazole], for which the IC50 was less than 5 nM.

Turning to `Cc1nnn(C)c1-c1cnc2c3ccc(S(C)(=O)=O)cc3n([C@H](c3ccccc3)C3CCOCC3)c2c1` [Example 177, 5-{7-Methanesulfonyl-5-[(S)-oxan-4-yl(phenyl)methyl]-5H-pyrido[3,2-b]indol-3-yl}-1,4-dimethyl-1H-1,2,3-triazole], the concentration for half-maximal inhibition (IC50) was less than 5 nM.

For the compound `Cc1noc(C)c1-c1cnc2c3ccc(C(C)(C)O)cc3n([C@@H](c3ccccn3)C3CCOCC3)c2c1` [Example 22], the IC50 was less than 5 nM.

Take `Cc1noc(C)c1-c1cnc2c3ccc(S(C)(=O)=O)cc3n(Cc3ccccc3)c2c1` [Example 52, 4-(5-Benzyl-7-(methylsulfonyl)-5H-pyrido[3,2-b]indol-3-yl)-3,5-dimethyl-1,2-oxazole]: the IC50 is less than 25 nM.

Turning to `Cc1nnn(C)c1-c1cnc2c3ccc(C(C)(C)O)cc3n(C(c3cc(F)ccc3F)C3CCOCC3)c2c1` (single isomer, unassigned) [Example 132, 2-{5-[(2,5-Difluorophenyl)(oxan-4-yl)methyl]-3-(dimethyl-1H-1,2,3-triazol-5-yl)-5H-pyrido[3,2-b]indol-7-yl}propan-2-ol], the IC50 was less than 5 nM.

Regarding `Cc1nnn(C)c1-c1cnc2c3ccc(CS(C)(=O)=O)cc3n([C@@H](c3ncccc3F)C3CCOCC3)c2c1` [Example 333], the IC50 is less than 5 nM.

With `Cc1noc(C)c1-c1cnc2c3ccc(C(=O)O)cc3n(C(c3ccccc3)c3ccccc3)c2c1` [Example 45, 3-(Dimethyl-1,2-oxazol-4-yl)-5-(diphenylmethyl)-5H-pyrido[3,2-b]indole-7-carboxylic acid], the IC50 was less than 5 nM.

Turning to `Cc1nnn(C)c1-c1cnc2c3ccc(C(=O)N4CC(F)(F)C4)cc3n([C@H](c3ccccc3)C3CCOCC3)c2c1` [Example 414, 5-[7-(3,3-Difluoroazetidine-1-carbonyl)-5-[(S)-oxan-4-yl(phenyl)methyl]-5H-pyrido[3,2-b]indol-3-yl]-1,4-dimethyl-1H-1,2,3-triazole], the IC50 was less than 5 nM.

Regarding `Cc1noc(C)c1-c1cnc2c3ccc(C(C)(C)O)cc3n(C(c3cccc(F)c3F)C3CCOCC3)c2c1` (single isomer, unassigned) [Example 146, 2-{5-[(2,3-Difluorophenyl)(oxan-4-yl)methyl]-3-(dimethyl-1,2-oxazol-4-yl)-5H-pyrido[3,2-b]indol-7-yl}propan-2-ol], the IC50 was less than 5 nM.

For the compound `Cc1nnn(C)c1-c1cnc2c3ccc(C(C)(C)NC(=O)CN(C)C)cc3n(C(c3ccccc3)C3CCOCC3)c2c1` (single isomer, unassigned) [Example 168, N-{2-[3-(Dimethyl-1H-1,2,3-triazol-5-yl)-5-[oxan-4-yl(phenyl)methyl]-5H-pyrido[3,2-b]indol-7-yl]propan-2-yl}-2-(dimethylamino)acetamide], the IC50 was less than 5 nM.

In the case of `Cc1nnn(C)c1-c1cnc2c3ccc(S(C)(=O)=O)cc3n([C@H](c3ccccc3F)C3CCOCC3)c2c1` [Example 264], the IC50 is less than 5 nM.

For `Cc1nnn(C)c1-c1cnc2c3c(S(C)(=O)=O)cccc3n(C(c3c(F)cc(F)cc3F)C3CCOCC3)c2c1` (single isomer, unassigned) [Example 118, 5-{9-Methanesulfonyl-5-[oxan-4-yl(2,4,6-trifluorophenyl)methyl]-5H-pyrido[3,2-b]indol-3-yl}-1,4-dimethyl-1H-1,2,3-triazole], the IC50 was less than 5 nM.

Take `Cc1noc(C)c1-c1cnc2c3ccc(C(C)(C)O)cc3n(C(c3ccccc3)C3(F)CCC3)c2c1` (single isomer, unassigned) [Example 32, 2-[3-(Dimethyl-1,2-oxazol-4-yl)-5-[(1-fluorocyclobutyl)(phenyl)methyl]-5H-pyrido[3,2-b]indol-7-yl]propan-2-ol]: the IC50 is less than 5 nM.

Consider `Cc1nnn(C)c1-c1cnc2c3ccc(C(C)(C)O)cc3n(C(c3ccc(Cl)cc3)C3CCOCC3)c2c1` (single isomer, unassigned) [Example 399], for which the IC50 is less than 5 nM.

The values above are taken from patent US10112941B2, “Tricyclic compounds as anticancer agents” (BRISTOL-MYERS SQUIBB COMPANY, priority 2013, dated 2018).
